Results on 23 compounds are retold here after patent US5053408A, “Hexitol derivatives having vasodilative activity” (Kyowa Hakko Kogyo Co., Ltd., priority 1989, dated 1991).

Counter-ions that a name gives are not always drawn. Like-named read-outs stand apart in the source and are kept apart here.

Data set [1] deals with coronary vasospasm model (lysine-vasopressin). Description: Effects on coronary vasospasm model (lysine-vasopressin test), inhibition of ST-segment elevation. The note with it: Rattus norvegicus. The data set is classed as in vivo, male Wistar rats.
Data set [2] has as its system male dd-mice. Briefly: Acute toxicity. The note with it: mouse, in vivo, 10080 min; for MLD i.p.: ip; for MLD p.o.: po. Here is the method: The compounds were orally administered and intraperitoneally administered to male dd-mice weighing 20 to 25 g. […] was determined by observing the mortality for seven days after the administration.
Where [3] appears, read: po, 30 min before anesthetization, lysine-vasopressin 0.3 I.U./kg iv, MED = minimum dose with depression rate of 20% or higher, read-out: Coronary vasoconstriction model MED p.o.
Where [4] appears, read: ip, 20 min before anesthetization, lysine-vasopressin 0.3 I.U./kg iv, MED = minimum dose with depression rate of 20% or higher, read-out: Coronary vasoconstriction model MED i.p.

As for `O=C(c1cccs1)N1CCN([C@H]2CO[C@H]3[C@@H]2OC[C@@H]3O[N+](=O)[O-])CC1` [Compound 111, 5-Deoxy-5-[4-(thiophen-2-yl)carbonylpiperazin-1-yl]-1.4;3.6-dianhydro-L-iditol 2-nitrate hydrochloride], the minimal effective dose in data set [1] (setting [3]) is less than 30 mg/kg. In data set [2], this compound gave an MLD i.p. greater than 100 mg/kg and an MLD p.o. greater than 300 mg/kg.

On to `O=[N+]([O-])O[C@H]1CO[C@H]2[C@@H]1OC[C@@H]2N1CCN(CCCn2ccnc2)CC1` [Compound 21, 5-Deoxy-5-[4-[3-(imidazol-1-yl)propyl]piperazin-1-yl]-1.4;3.6-dianhydro-L-iditol 2-nitrate hydrochloride], for which the minimal effective dose in data set [1] (setting [3]) is less than 30 mg/kg. In data set [2], this compound came in with an MLD i.p. greater than 100 mg/kg and an MLD p.o. greater than 300 mg/kg.

Regarding `O=C(O)Cc1ccc(SCCCN2CCN([C@H]3CO[C@H]4[C@@H]3OC[C@@H]4O[N+](=O)[O-])CC2)cc1` [Compound 16, 5-[4-[3-(4-Carboxymethylphenylthio)propyl]piperazin-1-yl]-5-deoxy-1.4;3.6-dianhydro-L-iditol 2-nitrate], the minimal effective dose in data set [1] (setting [3]) is less than 30 mg/kg. In data set [2], the MLD i.p. is greater than 100 mg/kg and the MLD p.o. is reported as greater than 300 mg/kg.

As for `O=[N+]([O-])O[C@H]1CO[C@H]2[C@@H]1OC[C@@H]2N1CCN(CCCn2cc3ccccc3n2)CC1` [Compound 31, 5-Deoxy-5-[4-[3-(indazol-2-yl)propyl]piperazin-1-yl]-1.4; 3.6-dianhydro-L-iditol 2-nitrate hydrochloride], in data set [1] (setting [4]), the minimal effective dose was less than 25 mg/kg. In data set [2], the MLD i.p. is given as greater than 100 mg/kg and the MLD p.o. was greater than 300 mg/kg.

As for `COc1cc2nc(N3CCN([C@H]4CO[C@H]5[C@@H]4OC[C@@H]5O[N+](=O)[O-])CC3)nc(N)c2cc1OC` [Compound 78, 5-[4-(4-Amino-6,7-dimethoxyquinazolin-2-yl)piperazin-1-yl]-5-deoxy-1.4;3.6-dianhydro-L-iditol 2-nitrate hydrochloride], in data set [1] (setting [3]), the minimal effective dose is less than 30 mg/kg. In data set [2], this compound had an MLD i.p. greater than 100 mg/kg and an MLD p.o. greater than 300 mg/kg.

For `O=C(c1ccccn1)N1CCN([C@H]2CO[C@H]3[C@@H]2OC[C@@H]3O[N+](=O)[O-])CC1` [Compound 81, 5-Deoxy-5-[4-(pyridin-2-yl)carbonylpiperazin-1-yl]-1.4;3.6-dianhydro-L-iditol 2-nitrate hydrochloride], the minimal effective dose in data set [1] (setting [3]) was less than 30 mg/kg. In data set [2], this compound registered an MLD i.p. greater than 100 mg/kg and an MLD p.o. greater than 300 mg/kg.

Consider `O=[N+]([O-])O[C@H]1CO[C@H]2[C@@H]1OC[C@@H]2N1CCN(c2nc3ccccc3s2)CC1` [Compound 58, 5-[4-(Benzothiazol-2-yl)piperazin-1-yl]-5-deoxy-1.4;3.6-dianhydro-L-iditol 2-nitrate hydrochloride], for which, in data set [1] (setting [4]), the minimal effective dose is less than 25 mg/kg. In data set [2], this compound registered an MLD i.p. greater than 100 mg/kg and an MLD p.o. greater than 300 mg/kg.

As for `O=C(c1ccco1)N1CCN([C@H]2CO[C@H]3[C@@H]2OC[C@@H]3O[N+](=O)[O-])CC1` [Compound 83, 5-Deoxy-5-[4-(furan-2-yl)carbonylpiperazin-1-yl]-1.4;3.6-dianhydro-L-iditol2-nitrate hydrochloride], the minimal effective dose in data set [1] (setting [3]) is less than 30 mg/kg. In data set [2], this compound yielded an MLD i.p. greater than 100 mg/kg and an MLD p.o. greater than 300 mg/kg.

`O=[N+]([O-])O[C@@H]1CO[C@H]2[C@@H]1OC[C@@H]2N1CCN(CCCSc2ccccc2)CC1` [Compound 96, 2-Deoxy-2-[4-(3-phenylthiopropyl)piperazin-1-yl]-1.4;3.6-dianhydro-D-glucitol 5-nitrate hydrochloride]: the minimal effective dose in data set [1] (setting [4]) is less than 25 mg/kg. In data set [2], the MLD i.p. was greater than 100 mg/kg and the MLD p.o. is given as greater than 300 mg/kg.

As to `Cc1cc2ncn(CCCN3CCN([C@H]4CO[C@H]5[C@@H]4OC[C@@H]5O[N+](=O)[O-])CC3)c2cc1C` [Compound 23, 5-Deoxy-5-[4-[3-(5,6-dimethylbenzimidazol-1-yl)propyl]-piperazin-1-yl]-1.4;3.6-dianhydro-L-iditol 2-nitrate hydrochloride], the minimal effective dose in data set [1] (setting [3]) was less than 30 mg/kg. In data set [2], this compound registered an MLD i.p. greater than 100 mg/kg and an MLD p.o. greater than 300 mg/kg.

Consider `O=[N+]([O-])O[C@H]1CO[C@H]2[C@@H]1OC[C@@H]2N1CCN(CCCn2cnc3ccccc32)CC1` [Compound 22, 5-[4-[3-(Benzimidazol-1-yl)propyl]piperazin-1-yl]-5-deoxy-1.4;3.6-dianhydro-L-iditol 2-nitrate hydrochloride], for which the minimal effective dose in data set [1] (setting [4]) was less than 25 mg/kg; in data set [1] (setting [3]), less than 30 mg/kg. Further, the MLD i.p. in data set [2] is on record as greater than 100 mg/kg. In data set [2], the MLD p.o. was greater than 300 mg/kg.

With `O=C(c1cccnc1)N1CC[N+]([O-])([C@H]2CO[C@H]3[C@@H]2OC[C@@H]3O[N+](=O)[O-])CC1` [Compound 113, 5-Deoxy-5-[4-(pyridin-3-yl)carbonylpiperazin N^1-oxid-1-yl]-1.4;3.6-dianhydro-L-iditol 2-nitrate hydrochloride], in data set [1] (setting [4]), the minimal effective dose was less than 25 mg/kg. For the same compound, in data set [2], the MLD i.p. is greater than 100 mg/kg and the MLD p.o. is greater than 300 mg/kg.

As to `O[C@H]1CO[C@H]2[C@@H]1OC[C@@H]2N1CCN(CCCOc2ccccc2)CC1` [Compound 102, 5-Deoxy-5-[4-(3-phenoxypropyl)piperazin-1-yl]-1.4;3.6-dianhydro-L-iditol hydrochloride], the minimal effective dose in data set [1] (setting [4]) is less than 25 mg/kg. In addition, the minimal effective dose in data set [1] (setting [3]) is less than 30 mg/kg. In data set [2], the MLD i.p. was greater than 100 mg/kg and the MLD p.o. is greater than 300 mg/kg.

For `O=[N+]([O-])O[C@H]1CO[C@H]2[C@@H]1OC[C@@H]2N1CCN(c2nnnn2-c2ccccc2)CC1` [Compound 60, 5-Deoxy-5-[4-(1-phenyl-1H-tetrazol-5-yl)piperazin-1-yl-]-1.4;3.6-dianhydro-L-iditol 2-nitrate hydrochloride], the minimal effective dose in data set [1] (setting [4]) is less than 25 mg/kg. In data set [2], the MLD i.p. is given as greater than 100 mg/kg and the MLD p.o. is greater than 300 mg/kg.

On to `O=[N+]([O-])O[C@H]1CO[C@H]2[C@@H]1OC[C@@H]2N1CCN(CCc2nc3ccccc3[nH]2)CC1` [Compound 57, 5-[4-[2-(Benzimidazol-2-yl)ethyl]piperazin-1-yl]-5-deoxy-1.4;3.6-dianhydro-L-iditol 2-nitrate hydrochloride], for which, in data set [1] (setting [4]), the minimal effective dose was less than 25 mg/kg. In data set [2], this compound yielded an MLD i.p. greater than 100 mg/kg and an MLD p.o. greater than 300 mg/kg.

For `O=C(NCCO[N+](=O)[O-])c1cccnc1` [Nicorandil, reference compound], the minimal effective dose in data set [1] (setting [4]) was less than 30 mg/kg.

`O=[N+]([O-])O[C@H]1CO[C@H]2[C@@H]1OC[C@@H]2N1CCN(CCCSc2ccccc2)CC1` [Compound 1, 5-Deoxy-5-[4-(3-phenylthiopropyl)piperazin-1-yl]-1.4;3.6-dianhydro-L-iditol2-nitrate hydrochloride]: the minimal effective dose in data set [1] (setting [4]) was less than 25 mg/kg; in data set [1] (setting [3]), less than 30 mg/kg. Moreover, the MLD i.p. in data set [2] was greater than 100 mg/kg. In addition, in data set [2], the MLD p.o. is recorded as greater than 150 mg/kg.

`O=C(c1cccnc1)N1CCN([C@H]2CO[C@H]3[C@@H]2OC[C@@H]3O[N+](=O)[O-])CC1` [Compound 80]: the minimal effective dose in data set [1] (setting [4]) was less than 25 mg/kg. In addition, the minimal effective dose in data set [1] (setting [3]) is less than 30 mg/kg. In data set [2], the MLD i.p. was greater than 100 mg/kg and the MLD p.o. was greater than 300 mg/kg.

`O=C(c1ccc(Cl)nc1)N1CCN([C@H]2CO[C@H]3[C@@H]2OC[C@@H]3O[N+](=O)[O-])CC1` [Compound 89, 5-[4-(6-Chloropyridin-3-yl)carbonylpiperazin-1-yl]-5-deoxy-1.4;3.6-dianhydro-L-iditol 2-nitrate hydrochloride]: the minimal effective dose in data set [1] (setting [3]) is less than 30 mg/kg. For the same compound, in data set [2], the MLD i.p. is greater than 100 mg/kg and the MLD p.o. is greater than 300 mg/kg.

With `O=C(c1ccoc1)N1CCN([C@H]2CO[C@H]3[C@@H]2OC[C@@H]3O[N+](=O)[O-])CC1` [Compound 112, 5-Deoxy-5-[4-(furan-3-yl)carbonylpiperazin-1-yl]-1.4;3.6-dianhydro-L-iditol2-nitrate hydrochloride], in data set [1] (setting [3]), the minimal effective dose was less than 30 mg/kg. In data set [2], this compound came in with an MLD i.p. greater than 100 mg/kg and an MLD p.o. greater than 300 mg/kg.

With `O=C(c1ccc(O)nc1)N1CCN([C@H]2CO[C@H]3[C@@H]2OC[C@@H]3O[N+](=O)[O-])CC1` [Compound 114, 5-Deoxy-5-[4-(6-hydroxypyridin-3-yl)carbonylpiperazin-1-yl]-1.4;3.6-dianhydro-L-iditol 2-nitrate hydrochloride], the minimal effective dose in data set [1] (setting [3]) was less than 30 mg/kg. Moreover, in data set [2], the MLD i.p. is recorded as greater than 100 mg/kg and the MLD p.o. is greater than 300 mg/kg.

As for `O=C(c1ccccc1)N1CCN([C@H]2CO[C@H]3[C@@H]2OC[C@@H]3O[N+](=O)[O-])CC1` [Compound 84, 5-(4-Benzoylpiperazin-1-yl)-5-deoxy-1.4;3.6-dianhydro-L-iditol 2-nitrate hydrochloride], in data set [1] (setting [4]), the minimal effective dose is less than 25 mg/kg. Moreover, in data set [2], the MLD i.p. is greater than 100 mg/kg and the MLD p.o. was greater than 300 mg/kg.

As for `O=C(c1cccnc1)N1CCN([C@H]2CO[C@H]3[C@@H]2OC[C@@H]3O)CC1` [Compound 117, 5-Deoxy-5-[4-(pyridin-3-yl)carbonylpiperazin-1-yl]-1.4;3.6-dianhydro-L-iditol], the minimal effective dose in data set [1] (ip, read-out: Coronary vasoconstriction model MED i.p.) is less than 25 mg/kg; in data set [1] (po, read-out: Coronary vasoconstriction model MED p.o.) it was less than 30 mg/kg.
